The values that follow come from patent publication US8946436B2, “Oxazolidinone compounds and their uses in preparation of antibiotics” (Sichuan Gooddoctor Pharmaceutical Group Co., Ltd., priority 2011, dated 2015).

The subject of one experiment is PNSSP. The experiment can be described thus: Minimum bactericidal concentration (MBC) test, PNSSP. The experiment is classed as cell-based, Streptococcus pneumoniae. To be noted: strain 09J699, PNSSP. Here is the method: (§1) Staphylococcus and Enterococcus faecium were incubated in Mueller-Hinton agar medium (MHA medium) at 35° C. for 16-20 h; S. pneumoniae was incubated in Cation-Adjusted Mueller-Hinton Broth medium (CAMHB medium) supplemented with 2.5-5.5% (v/v) lysed horse blood (LHB) at 35° C. for 20-24 h; and Streptococcus were incubated in sheep blood-containing medium (prepared by addition of 5% defibrinated sheep blood into MHA media) at 35° C. for 20-24 h in 5% CO2 environment (CO2 incubator). Before test of the compound activity, each stock of the bacteria strains was activated and colonized in the following manner: the stock was transferred and cultured in a liquid culture medium, the culture liquid was smeared onto an agar plate with an inoculating loop to obtain bacterial colonies on the plate after incubation, and then a colony of the bacteria was chose to be suspended into the liquid culture medium for performing the test of compound activity. As a result, fresh bacteria cells were applied to the test. The standard strains were used as sensitive bacterium to control the quality of the experiments, and a plate or tube containing no antibacterial compounds is used as a blank control for the growth of test strains.
(§2) The minimal inhibitory concentration (MIC) of the test compounds on the strains of Streptococcus pneumoniae was determined by a standard broth macrodilution method, while the MIC of the test compounds on the other bacteria stains was determined by standard agar double dilution methods. The concentration of the test compounds was in the range of 32 mg/L-0.016 mg/L. The bacterial suspensions to be tested were inoculated by a multipoint inoculator, and the inoculation amount at each point is 10^4 CFU. The MIC of the test compound to each strain of the bacteria was determined.
(§3) The MBC was determined by a tube double dilution method. Solutions of the test compounds was prepared and serially diluted. Each of the solutions was mixed with a bacterium suspension (10^6 CFU/mL), and then was incubated at 35° C. overnight. […]

Another experiment has as its system Streptococcus pyogenes. The experiment can be described thus: MIC against clinically isolated strains, Streptococcus pyogenes. In kind it is cell-based. Also on record: MICmode / MICrange: unit not given here. The conditions noted are these: Streptococcus pyogenes (15 strains).
Text: Standard strains, including Staphylococcus aureus ATCC29213, S. pneumoniae ATCC49619, E. faecalis ATCC29212, are all available from the American Type Culture Collection.
Clinically isolated strains: There are total 120 clinical strains of gram-positive bacterium including: 37 strains of Staphylococcus aureus (consisting of 14 strains of methicillin sensitive Staphylococcus aureus MSSA and 23 strains of methicillin resistant Staphylococcus aureus MRSA); 27 strains of Streptococcus pneumoniae (consisting of 13 strains of penicillin sensitive Streptococcus pneumoniae PSSP and 14 strains of penicillin insensitive or resistant Streptococcus pneumoniae PISP+PRSP); 15 strains of Streptococcus pyogenes; 17 strains of Streptococcus agalactiae; 24 stains of Enterococcus faecium (consisting of 12 strains of vancomycin sensitive Enterococcus faecium and 12 strains of vancomycin resistant Enterococcus faecium).
(2) Tested compounds: Compound 13f was prepared by the methods above, with potency of over 98%; Linezolid was purchased from Pfizer, with potency of 100%.
as §1
The minimal inhibitory concentration (MIC) of the test compounds on the strains of Streptococcus pneumoniae was determined by a standard broth macrodilution method, while the MIC of the test compounds on the other bacteria stains was determined by standard agar double dilution methods. […] The MIC of the test compound to each strain of the bacteria was determined.

The test system of a further experiment is gram-positive bacteria. As to the kind of experiment: MBC test, 10 strains of clinically isolated gram-positive bacteria. The experiment is classed as cell-based. Here is the method: In order to investigate whether the antibacterial activity of Compound 13f is bacteriostatic or bactericidal to gram-positive bacteria, we tested its MBC on 10 strains of gram-positive bacteria (established by clinical isolation), results as shown in Table 4.
(§4) The MBC was determined by a tube double dilution method. Solutions of the test compounds was prepared and serially diluted. Each of the solutions was mixed with a bacterium suspension (10^6 CFU/mL), and then was incubated at 35° C. overnight. 0.1 mL of the culture supernatant of each tubes was inoculated on a plate containing no antibiotics, and then incubated at 35° C. for 18 h.

The test system of a further experiment is PSSP. The experiment can be described thus: Minimum bactericidal concentration (MBC) test, PSSP. To be noted: strain 09G343, PSSP. The experiment is classed as cell-based, penicillin sensitive Streptococcus pneumoniae. Here is the method: as §1, §2, §3
The subject of a further experiment is MSSA. As to the kind of experiment: Minimum bactericidal concentration (MBC) test, MSSA. In kind it is cell-based, methicillin sensitive Staphylococcus aureus. The conditions noted are these: for MIC: MSSA. The procedure:
as §1, §2, §4

Setting [1] is: Staphylococcus aureus, strain 09U035, MSSA.

Values after ≈ are worked out from the molar mass of the structure shown.

For `CC(=O)NC[C@H]1CN(c2ccc(-n3cc(-c4ccccn4)cn3)c(F)c2)C(=O)O1` [Compound 13f, (S)-N-((3-(3-fluoro-4-(4-(pyridin-2-yl)-1H-pyrazol-1-yl)phenyl)-2-oxooxazolidin-5-yl)methyl)acetamide], the MBC (commonly the lowest tested concentration that kills the bacteria rather than only halting them) came out at 2 ng/mL (≈ 5.06 nM) with PNSSP (Streptococcus pneumoniae), 1 ng/mL (≈ 2.53 nM) in the experiment on PSSP (Streptococcus pneumoniae) and 2 ng/mL (≈ 5.06 nM) against MSSA (setting [1]). The MIC (commonly the lowest concentration found to suppress growth) in the experiment with PNSSP (Streptococcus pneumoniae) came out at 1 ng/mL (≈ 2.53 nM); against PSSP (Streptococcus pneumoniae), 0.5 ng/mL (≈ 1.26 nM); against MSSA (Staphylococcus aureus, strain 09O077, MSSA), 1 ng/mL (≈ 2.53 nM); with MSSA (setting [1]), 2 ng/mL (≈ 5.06 nM). Also, the MBC/MIC in the experiment on PNSSP is reported as 2; with PSSP, 2; in the experiment with MSSA (strain 09O077, MSSA), 2; with MSSA (strain 09U035, MSSA), 1. In the experiment on Streptococcus pyogenes, the MIC50 (as a rule, an inhibitory concentration at the 50% level, which refers to growth in some studies and to a panel of isolates in others) came to 0.25 ng/mL (≈ 0.632 nM). The MIC90 (usually the lowest concentration that inhibits either 90% of growth or 90% of the strains tested, depending on the study) in the experiment with Streptococcus pyogenes stood at 0.5 ng/mL (≈ 1.26 nM). In addition, in the experiment with Streptococcus pyogenes, the MICmode was 0.25. Also, the MICrange against Streptococcus pyogenes is 0.25-0.5. In addition, the MBC/MIC ratio with gram-positive bacteria (3 of 4 tested strains of E. faecalis) is on record as 4. For the same molecule, the “ratio of MBC/MIC” value is on record as 1-2 in the experiment with gram-positive bacteria (Staphylococcus sp. and Streptococcus pneumoniae); at most 4 with gram-positive bacteria (all the 10 tested strains). The bacteriostatic or bactericidal result in the experiment on gram-positive bacteria (all the 10 tested strains, MBC/MIC ≦4) is “bactericidal effect”. Besides, in the experiment on MSSA (strain 09O077, MSSA), the MBC value was found to be 2 ng/mL (≈ 5.06 nM).
